Assay results reported in patent publication US9139652B2, “Method for increasing M1 macrophages in a patient” (TRANSGENE SA, priority 2011, dated 2015).
Like-named read-outs stand apart in the source and are kept apart here.

What was measured:
[1] = system: differentiating macrophages; assay: Human macrophage differentiation assay: cytotoxicity / cell counts at day 6; type: cell-based
Excerpt: Cells were counted following a 6-day culture of monocytes with GM-CSF and CSF-1, in the presence or absence of anti-CD115 mAbs or F(ab′)2 or with GW2580. Controls included cultures treated with rituximab or rituximab F(ab′)2, or without any added compound.
Buffy coats were provided by the Etablissement Francais du Sang (EFS, Strasbourg). Peripheral blood mononucleated cells (PBMC) were obtained by centrifugation on a ficoll gradient. Monocytes were purified by immunomagnetic cell sorting, using CD14-antibody-coated beads (Miltenyii). […] Monocytes were differentiated for 6 days in 48-well plates (3×10^5 cells/well) in RPMI-Glutamax™ medium supplemented with 10% heat inactivated fetal calf serum and 1% tri-antibiotic mixture (penicillin, streptomycin, neomycin). GM-CSF (10 ng/ml) was added in the cell culture medium from day 0 to day 3. H27K15, other antibodies or internal control GW2580 (LC Labs) were added at day 0. On day 3 post-isolation, monocytes were washed with PBS and further cultivated in medium supplemented with CSF-1 (10 ng/ml) and GM-CSF (2 ng/ml), in the presence or absence of antibodies or GW2580. On day 6, supernatants were collected and stored at −20° C. Cells were detached from the plastic and pools of triplicates were analyzed by IC/FC (immunocytochemistry/flow cytometry) for cell sizes and expression of FcγR and CD86. Cytokines and chemokines were quantified in the culture supernatants by multiplex (Bioplex, Bio-Rad) or by ELISA.
Three different doses of mab H27K15 or isotype control rituximab (0.1; 1 or 10 μg/ml) were added to the culture medium at the beginning of the culture and again 3 days later. F(ab′)2 generated from H27K15 or from rituximab were tested in parallel at equivalent molar concentrations.
Cell viability was analyzed at day 6 by counting 5 microscope fields in each well of the plate (one in the center of the well and four fields at mid-distance between the center and the side of the well).

[2] = system: MCP-1/CCL2 secretion by macrophages; assay: Human macrophage differentiation assay: MCP-1 in day-6 culture supernatants; type: cell-based; settings: day-6 macrophage supernatants, GW2580 1 μM vs no treatment
Description: MCP-1 and IL-6 were titrated in the culture supernatants from day-6 macrophages differentiated in the presence of mAb H27K15 (1 μg/ml), GW2580 (1 μM) or their respective negative controls rituximab or no treatment. Percentages of reduction in MCP-1 (upper panel) or in IL-6 production (lower panel) were calculated for the 3 blood donors as: 100−[100×cytokine concentration with test compound (pg/ml)/cytokine concentration with control (pg/ml)].
(§1) Buffy coats were provided by the Etablissement Francais du Sang (EFS, Strasbourg). Peripheral blood mononucleated cells (PBMC) were obtained by centrifugation on a ficoll gradient. Monocytes were purified by immunomagnetic cell sorting, using CD14-antibody-coated beads (Miltenyii). Enriched monocyte suspensions were more than 95% pure. Monocytes were differentiated for 6 days in 48-well plates (3×10^5 cells/well) in RPMI-Glutamax™ medium supplemented with 10% heat inactivated fetal calf serum and 1% tri-antibiotic mixture (penicillin, streptomycin, neomycin). GM-CSF (10 ng/ml) was added in the cell culture medium from day 0 to day 3. […] Cells were detached from the plastic and pools of triplicates were analyzed by IC/FC (immunocytochemistry/flow cytometry) for cell sizes and expression of FcγR and CD86. Cytokines and chemokines were quantified in the culture supernatants by multiplex (Bioplex, Bio-Rad) or by ELISA. […]

[3] = system: CD163-positive M2-type macrophages; assay: Flow cytometry of CD163-positive cells in day-6 macrophages; type: cell-based, human; settings: 3 donors
Description: FIG. 7 Cells obtained after 6-day culture with GM-CSF and CSF-1 were harvested and incubated for 20 min at 4° C. with PBS containing human IgG Fc fragments to saturate Fc receptors. Fluorochrome-conjugated mAbs (anti-CD14-PerCP-Cy5.5, anti-CD163-PE, anti-CD206-APC, anti-CD1a-FITC, BD Biosciences) were then incubated with each sample for 20 min at 4° C. FCM analysis was performed using a FACS LSR-II (BD biosciences) with the DIVA software. Data from 3 different blood donors are presented.
as §1, with “pure.” for “pure. Monocytes were differentiated for 6 days in 48-well plates (3×10^5 cells/well) in RPMI-Glutamax™ medium supplemented with 10% heat inactivated fetal calf serum and 1% tri-antibiotic mixture (penicillin, streptomycin, neomycin). GM-CSF (10 ng/ml) was added in the cell culture medium from day 0 to day 3.”
The surface expression of CD163 was analyzed by flow cytometry in day-6 macrophages derived from human monocytes cultured with GM-CSF and CSF-1. […]

[4] = system: MMP-9 production by monocytes cultured with GM-CSF and CSF-1; assay: MMP-9 ELISA in day-6 supernatants of monocytes cultured with GM-CSF and CSF-1; type: cell-based, human; settings: GW2580, effect in 2 out of 3 donors
Description: FIG. 6. Monocytes isolated from 3 different blood donors were differentiated for 6 days in the presence of GM-CSF and CSF-1, with or without mAb H27K15, Rituximab or GW2580. MAb H27K15 or Rituximab (0.1, 1 or 10 μg/ml) or equimolar concentrations of F(ab)′2 derived from both mAbs were added to the cultures. MMP-9 was titrated by ELISA (R&D Systems) in day-6 culture supernatants.
Buffy coats were provided by the Etablissement Francais du Sang (EFS, Strasbourg). Peripheral blood mononucleated cells (PBMC) were obtained by centrifugation on a ficoll gradient. Monocytes were purified by immunomagnetic cell sorting, using CD14-antibody-coated beads (Miltenyii). Enriched monocyte suspensions were more than 95% pure. […] Cells were detached from the plastic and pools of triplicates were analyzed by IC/FC (immunocytochemistry/flow cytometry) for cell sizes and expression of FcγR and CD86. Cytokines and chemokines were quantified in the culture supernatants by multiplex (Bioplex, Bio-Rad) or by ELISA.
CD14^+ monocytes from 3 different donors were allowed to differentiate in the presence of both GM-CSF and CSF-1, known to induce macrophage differentiation towards respectively the M1- and M2-types. […] After 6 days of culture, MMP-9 concentrations were measured in the supernatants by ELISA (FIG. 6). […]

[5] = system: IL-12p70 and IL-10 secretion by macrophages; assay: Human macrophage differentiation assay: IL-12p70 and IL-10 in day-6 culture supernatants; type: cell-based; settings: for IL-12p70 secretion: detection limit 1 pg/ml
Description: IL-12p70 and IL-10 were titrated in the culture supernatants from day-6 macrophages differentiated in the presence of mAb H27K15 (1 μg/ml), GW2580 (1 μM) or their respective negative controls rituximab or no treatment. Left panel: IL-12p70 and IL-10 levels (pg/ml) in macrophage cultures from 3 blood donors. Right: IL-12p70 (pg/ml)/IL-10 (pg/ml) ratios were calculated for each blood donor and each culture condition. In samples where IL-12p70 was undetectable (below the detection limit of 1 pg/m)l, its level was arbitrarily set at 1 pg/ml for the calculation of IL-12p70/IL-10 ratios.
Buffy coats were provided by the Etablissement Francais du Sang (EFS, Strasbourg). Peripheral blood mononucleated cells (PBMC) were obtained by centrifugation on a ficoll gradient. Monocytes were purified by immunomagnetic cell sorting, using CD14-antibody-coated beads (Miltenyii). Enriched monocyte suspensions were more than 95% pure. Monocytes were differentiated for 6 days in 48-well plates (3×10^5 cells/well) in RPMI-Glutamax™ medium supplemented with 10% heat inactivated fetal calf serum and 1% tri-antibiotic mixture (penicillin, streptomycin, neomycin). GM-CSF (10 ng/ml) was added in the cell culture medium from day 0 to day 3. H27K15, other antibodies or internal control GW2580 (LC Labs) were added at day 0. On day 3 post-isolation, monocytes were washed with PBS and further cultivated in medium supplemented with CSF-1 (10 ng/ml) and GM-CSF (2 ng/ml), in the presence or absence of antibodies or GW2580. On day 6, supernatants were collected and stored at −20° C. Cells were detached from the plastic and pools of triplicates were analyzed by IC/FC (immunocytochemistry/flow cytometry) for cell sizes and expression of FcγR and CD86. Cytokines and chemokines were quantified in the culture supernatants by multiplex (Bioplex, Bio-Rad) or by ELISA.
To study whether mAb H27K15 could affect macrophage differentiation, purified CD14^+ monocytes were cultured for […] in the presence of GM-CSF and CSF-1, known to induce respectively M1- and M2-type macrophages (Akagawa K. S., 2002; Verreck F. A. et al., 2004). Three different doses of mab H27K15 or isotype control rituximab (0.1; 1 or 10 μg/ml) were added to the culture medium at the beginning of the culture and again 3 days later. F(ab′)2 generated from H27K15 or from rituximab were tested in parallel at equivalent molar concentrations. F(ab′)2 generated from mAb 1.2 SM (WO 2009/026303) was tested for comparison with the F(ab′)2 derived from H27K15 or rituximab. The known blocking mAb to human CD115, 2-4A5, or the non-blocking mAb 9-4D2 (Sherr C. J. et al., 1989) were assayed and compared with isotype control rat IgG1. […]

[6] = system: CD64 (FcγRI) expression in human macrophages; assay: Human macrophage differentiation assay: surface CD64 expression by IC/FC; type: cell-based; settings: day-6 macrophages, GW2580 vs no treatment
Description: Macrophages obtained following a 6-day culture of monocytes from 3 different blood donors with GM-CSF and CSF-1 were analyzed by IC/FC for surface expression of CD64. Upper panels: CD64 staining in cultures from donor 1 treated with monoclonal antibody H27K15 (left, bold line) or with GW2580 (right, bold line) or their respective negative controls rituximab (left, thin line) or no treatment (right, thin line). Lower panel: Medians of fluorescence intensities in macrophage cultures treated with test compounds at 10, 1 or 0.1 μg/ml* were compared with those in the corresponding negative controls: H27K15 vs rituximab, H27K15-derived F(ab′)2 vs rituximab-derived F(ab′)2, mAbs 2-4A5 or 9-4D2 vs rat IgG1, GW2580 vs no treatment. Percentages of reduction in CD64 expression were calculated as: 100−[100×Median fluorescence intensity with test compound/Median fluorescence intensity with control]. […]
Buffy coats were provided by the Etablissement Francais du Sang (EFS, Strasbourg). […] Cells were detached from the plastic and pools of triplicates were analyzed by IC/FC (immunocytochemistry/flow cytometry) for cell sizes and expression of FcγR and CD86. Cytokines and chemokines were quantified in the culture supernatants by multiplex (Bioplex, Bio-Rad) or by ELISA. […]

[7] = system: CD86^bright SSC^low macrophage population; assay: Human macrophage differentiation assay: CD86^bright SSC^low population by IC/FC; type: cell-based; settings: day-6 macrophages, GW2580 vs no treatment
Description: Upper panels: Dot plots showing CD86 staining (x-axis) and side scatter (SSC, y-axis) of macrophages from donor 3 differentiated for 6 days in the presence of H27K15 (left) or negative control rituximab (right). A gate was set on the CD86^bright SSC^low cell population induced by H27K15. Lower panel: Percentages of CD86^bright SSC^low cells with the test compounds at 10, 1 or 0.1 μg/ml* were compared with those in the corresponding negative controls: H27K15 vs rituximab, H27K15-derived F(ab′)2 vs rituximab-derived F(ab′)2, GW2580 vs no treatment. Percentages of increase in the CD86^bright SSC^low cell population were calculated as: 100×percentage of CD86^bright SSC^low cells with test compound/percentage of CD86^bright SSC^low cells with control. Shown are the mean percentages of increase in the CD86^bright SSC^low cell population from the 3 blood donors. *except for F(ab′)2: 6.6; 0.6; and 0.06 μg/ml.
Buffy coats were provided by the Etablissement Francais du Sang (EFS, Strasbourg). Peripheral blood mononucleated cells (PBMC) were obtained by centrifugation on a ficoll gradient. […] Cells were detached from the plastic and pools of triplicates were analyzed by IC/FC (immunocytochemistry/flow cytometry) for cell sizes and expression of FcγR and CD86. Cytokines and chemokines were quantified in the culture supernatants by multiplex (Bioplex, Bio-Rad) or by ELISA. […]

Rituximab F(ab′)2: F(ab′)2 produced by pepsine digestion of rituximab, negative control
Microscopical observation of day-6 cultures (cytotoxicity) ([1]; compared with untreated cells, independently of the blood donor, monocytes cultured with GM-CSF and CSF-1): no obvious differences

COc1ccc(COc2ccc(Cc3cnc(N)nc3N)cc2OC)cc1 [GW2580]
Suppression of MCP-1 production [2]: as efficacious as H27K15
Differentiation of the CD163+ macrophage population (CD163 expression) [3]: had the same effect in only ⅔ donors
MMP-9 production [4]: dose-dependent decrease
IL-10 production ([5]; GW2580 1 μM): inhibition of IL-10 production
IL-12p70/IL-10 ratios ([5]; GW2580 1 μM vs no treatment): increased
IL-12p70 secretion ([5]; GW2580 1 μM): not detectable
Surface expression of CD64 [6]: drastically reduced
Microscopical observation of day-6 cultures (cytotoxicity) ([1]; 1 μM, all blood donors, debris and less density of cells): relative cytotoxicity
Macrophage number remaining at day 6 compared with untreated cultures ([1]; GW2580 1 μM, cell counts in 5 microscope fields (FIG. 1)): approximately 70%
Induction of CD86^bright SSC^low cell sub-population [7]: had appeared

Rituximab: human IgG1 isotype control, obtained from Roche
IL-12p70 secretion ([5]; 3 blood donors, mAb 1 μg/ml): did not produce any detectable IL-12p70
Microscopical observation of day-6 cultures (cytotoxicity) [1]: no obvious differences
